PubChem BioAssay AID1845200 (Molecular Pharmacology Branch, DTP, NCI, 2023)

Tested on: ASPS-1 complex tumor spheroids, viability
Test: Anticancer human tumor ASPS-1 cell line growth inhibition;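 also: spheroids exposed to agents for 7 days after 3 days of growth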;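 as to viability, T/C: 100% = DMSO vehicle treated spheroids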
Details: for IC50: curve of first compound; for viability, T/C: stronger effect = lower value
Outline: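 Complex tumor spheroids combined malignant cells with endothelial cells and mesenchymal stem cells. DNA-damaging drugs and DNA repair inhibitors were tested alone and in combination, at half-log dilutions down from clinical Cmax (top 10 microM if Cmax unknown), 0.25% DMSO final.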

[1] = second compound 0.003 µM, first compound 0.0316 µM
[2] = second compound 0.003 µM, first compound 0.1 µM
[3] = second compound 0.003 µM, first compound 0.316 µM
[4] = second compound 0.003 µM, first compound 1 µM
[5] = second compound 0.003 µM, first compound 3.16 µM
[6] = second compound 0.003 µM, first compound 10 µM

[2H]c1nc(C)nc([2H])c1-c1cc(NC[C@@H](C)c2cccc3c(C(=O)NC)ccnc23)ncn1 + COc1cc2c(cc1O)CCNC21CSC2c3c(OC(C)=O)c(C)c4c(c3C(COC1=O)N1C(O)C3Cc5cc(C)c(OC)c(O)c5C(C21)N3C)OCO4
IC50 (second compound 30 pM): > 10 µM | IC50 (second compound 94.9 pM): > 10 µM | IC50 (second compound 0.0003 µM): > 10 µM | IC50 (second compound 0.000949 µM): 6.59 µM | IC50 (second compound 0.003 µM): < 0.0316 µM | viability, T/C (second compound 30 pM, first compound 0.0316 µM): 106% | viability, T/C (second compound 30 pM, first compound 0.1 µM): 105% | viability, T/C (second compound 30 pM, first compound 0.316 µM): 102% | viability, T/C (second compound 30 pM, first compound 1 µM): 107% | viability, T/C (second compound 30 pM, first compound 3.16 µM): 102% | viability, T/C (second compound 30 pM, first compound 10 µM): 98.7% | viability, T/C (second compound 94.9 pM, first compound 0.0316 µM): 106% | viability, T/C (second compound 94.9 pM, first compound 0.1 µM): 102% | viability, T/C (second compound 94.9 pM, first compound 0.316 µM): 99% | viability, T/C (second compound 94.9 pM, first compound 1 µM): 98.2% | viability, T/C (second compound 94.9 pM, first compound 3.16 µM): 97.6% | viability, T/C (second compound 94.9 pM, first compound 10 µM): 99.5% | viability, T/C (second compound 0.0003 µM, first compound 0.0316 µM): 97.6% | viability, T/C (second compound 0.0003 µM, first compound 0.1 µM): 94.8% | viability, T/C (second compound 0.0003 µM, first compound 0.316 µM): 93% | viability, T/C (second compound 0.0003 µM, first compound 1 µM): 88.5% | viability, T/C (second compound 0.0003 µM, first compound 3.16 µM): 98% | viability, T/C (second compound 0.0003 µM, first compound 10 µM): 91.3% | viability, T/C (second compound 0.000949 µM, first compound 0.0316 µM): 78.6% | viability, T/C (second compound 0.000949 µM, first compound 0.1 µM): 76.5% | viability, T/C (second compound 0.000949 µM, first compound 0.316 µM): 71.1% | viability, T/C (second compound 0.000949 µM, first compound 1 µM): 66.2% | viability, T/C (second compound 0.000949 µM, first compound 3.16 µM): 56.2% | viability, T/C (second compound 0.000949 µM, first compound 10 µM): 46.2% | viability, T/C [1]: 18.6% | viability, T/C [2]: 22.6% | viability, T/C [3]: 18% | viability, T/C [4]: 18.1% | viability, T/C [5]: 11% | viability, T/C [6]: 3.59%

COc1ccc([C@@H](O)c2cc(-c3ncnc4cc(N5CCOCC5)ccc34)c(F)cc2Cl)nn1 + Cn1nnc2c(C(N)=O)ncn2c1=O
IC50 (second compound 1 µM): 9.75 µM | IC50 (second compound 3.16 µM): > 10 µM | IC50 (second compound 10 µM): 6.72 µM | IC50 (second compound 31.6 µM): 2.61 µM | IC50 (second compound 100 µM): 1.73 µM | viability, T/C (second compound 1 µM, first compound 0.0316 µM): 107% | viability, T/C (second compound 1 µM, first compound 0.1 µM): 103% | viability, T/C (second compound 1 µM, first compound 0.316 µM): 106% | viability, T/C (second compound 1 µM, first compound 1 µM): 101% | viability, T/C (second compound 1 µM, first compound 3.16 µM): 92% | viability, T/C (second compound 1 µM, first compound 10 µM): 48.4% | viability, T/C (second compound 3.16 µM, first compound 0.0316 µM): 103% | viability, T/C (second compound 3.16 µM, first compound 0.1 µM): 102% | viability, T/C (second compound 3.16 µM, first compound 0.316 µM): 105% | viability, T/C (second compound 3.16 µM, first compound 1 µM): 99.8% | viability, T/C (second compound 3.16 µM, first compound 3.16 µM): 75.7% | viability, T/C (second compound 3.16 µM, first compound 10 µM): 53.1% | viability, T/C (second compound 10 µM, first compound 0.0316 µM): 92% | viability, T/C (second compound 10 µM, first compound 0.1 µM): 94.9% | viability, T/C (second compound 10 µM, first compound 0.316 µM): 99% | viability, T/C (second compound 10 µM, first compound 1 µM): 79.2% | viability, T/C (second compound 10 µM, first compound 3.16 µM): 69.8% | viability, T/C (second compound 10 µM, first compound 10 µM): 40.3% | viability, T/C (second compound 31.6 µM, first compound 0.0316 µM): 82.7% | viability, T/C (second compound 31.6 µM, first compound 0.1 µM): 83.7% | viability, T/C (second compound 31.6 µM, first compound 0.316 µM): 77.2% | viability, T/C (second compound 31.6 µM, first compound 1 µM): 67.7% | viability, T/C (second compound 31.6 µM, first compound 3.16 µM): 46.2% | viability, T/C (second compound 31.6 µM, first compound 10 µM): 33.8% | viability, T/C (second compound 100 µM, first compound 0.0316 µM): 82.1% | viability, T/C (second compound 100 µM, first compound 0.1 µM): 67.6% | viability, T/C (second compound 100 µM, first compound 0.316 µM): 64.7% | viability, T/C (second compound 100 µM, first compound 1 µM): 57.1% | viability, T/C (second compound 100 µM, first compound 3.16 µM): 44.5% | viability, T/C (second compound 100 µM, first compound 10 µM): 33.2%

CC(C)n1c(=O)n(C)c2cnc3cc(F)c(-c4ccc(OCCCN5CCCCC5)nc4)cc3c21 + CC[C@@]1(O)C(=O)OCc2c1cc1n(c2=O)Cc2cc3c(CN(C)C)c(O)ccc3nc2-1
IC50 (second compound 0.003 µM): 6.68 µM | IC50 (second compound 0.00949 µM): 5.2 µM | IC50 (second compound 0.03 µM): 0.184 µM | IC50 (second compound 0.0949 µM): 0.161 µM | IC50 (second compound 0.3 µM): 0.188 µM | viability, T/C [1]: 99.3% | viability, T/C [2]: 99.6% | viability, T/C [3]: 108% | viability, T/C [4]: 98% | viability, T/C [5]: 82.9% | viability, T/C [6]: 32.4% | viability, T/C (second compound 0.00949 µM, first compound 0.0316 µM): 82.9% | viability, T/C (second compound 0.00949 µM, first compound 0.1 µM): 69.2% | viability, T/C (second compound 0.00949 µM, first compound 0.316 µM): 71% | viability, T/C (second compound 0.00949 µM, first compound 1 µM): 65.6% | viability, T/C (second compound 0.00949 µM, first compound 3.16 µM): 67% | viability, T/C (second compound 0.00949 µM, first compound 10 µM): 30.6% | viability, T/C (second compound 0.03 µM, first compound 0.0316 µM): 61.1% | viability, T/C (second compound 0.03 µM, first compound 0.1 µM): 53% | viability, T/C (second compound 0.03 µM, first compound 0.316 µM): 48% | viability, T/C (second compound 0.03 µM, first compound 1 µM): 31.3% | viability, T/C (second compound 0.03 µM, first compound 3.16 µM): 33.2% | viability, T/C (second compound 0.03 µM, first compound 10 µM): 27.1% | viability, T/C (second compound 0.0949 µM, first compound 0.0316 µM): 64.3% | viability, T/C (second compound 0.0949 µM, first compound 0.1 µM): 54.7% | viability, T/C (second compound 0.0949 µM, first compound 0.316 µM): 41.8% | viability, T/C (second compound 0.0949 µM, first compound 1 µM): 21.9% | viability, T/C (second compound 0.0949 µM, first compound 3.16 µM): 22.4% | viability, T/C (second compound 0.0949 µM, first compound 10 µM): 26.1% | viability, T/C (second compound 0.3 µM, first compound 0.0316 µM): 62.9% | viability, T/C (second compound 0.3 µM, first compound 0.1 µM): 60.6% | viability, T/C (second compound 0.3 µM, first compound 0.316 µM): 40.9% | viability, T/C (second compound 0.3 µM, first compound 1 µM): 22% | viability, T/C (second compound 0.3 µM, first compound 3.16 µM): 20.9% | viability, T/C (second compound 0.3 µM, first compound 10 µM): 24.2%
